Results on eleven compounds are retold here after patent US6642226B2, “Substituted phenyl-piperidine methanone compounds” (Hoffman-La Roche Inc., priority 2001, dated 2003).

Values after ≈ are worked out from the molar mass of the structure shown.

The target in data set [1] is T1, human NK1 receptor (Homo sapiens, UniProt P25103).
T1 construct: expressed in transfected cells; host or cells: CHO cells, Semliki virus expression system; membrane suspension
Description: NK1 receptor binding, [3H]substance P displacement. The conditions noted are these: for Ki: read-out: pKi (affinity to the NK-1 receptor) (converted); for relative activity of enantiomer in the test for NK-1 binding: enantiomer fraction from Chiralpak AD separation of the racemate. The method, then:
The affinity of test compounds for the NK1 receptor was evaluated at human NK1 receptors in CHO cells infected with the human NK1 receptor (using the Semliki virus expression system) and radiolabelled with [^3H]substance P (final concentration 0.6 nM). Binding assays were performed in HEPES buffer (50 mM, pH 7.4) containing BSA (0.04%) leupeptin (8 μg/ml), MnCl2 (3 mM) and phosphoramidon (2 μM). Binding assays consisted of 250 μl of membrane suspension (1.25×10^5 cells/assay tube), […] of buffer of displacing agent and 125 μl of [^3H]substance P. Displacement curves were determined with at least seven concentrations of the compound. The assay tubes were incubated for 60 min at room temperature after which time the tube contents were rapidly filtered under vacuum through GF/C filters presoaked for 60 min with PEI (0.3%) with 2×2 ml washes of HEPES buffer (50 mM, pH 7.4). The radioactivity retained on the filters was measured by scintillation counting. All assays were performed in triplicate in at least 2 separate experiments.

Data set [2] in a line: Solubility at pH 6.5 and pH 4.3 (water-solubility). The conditions noted are these: water (aqueous medium; buffer not named).
Where [3] appears, read: human NK1 receptors in CHO cells, [3H]substance P 0.6 nM.

T1 sequence (P25103 whole entry): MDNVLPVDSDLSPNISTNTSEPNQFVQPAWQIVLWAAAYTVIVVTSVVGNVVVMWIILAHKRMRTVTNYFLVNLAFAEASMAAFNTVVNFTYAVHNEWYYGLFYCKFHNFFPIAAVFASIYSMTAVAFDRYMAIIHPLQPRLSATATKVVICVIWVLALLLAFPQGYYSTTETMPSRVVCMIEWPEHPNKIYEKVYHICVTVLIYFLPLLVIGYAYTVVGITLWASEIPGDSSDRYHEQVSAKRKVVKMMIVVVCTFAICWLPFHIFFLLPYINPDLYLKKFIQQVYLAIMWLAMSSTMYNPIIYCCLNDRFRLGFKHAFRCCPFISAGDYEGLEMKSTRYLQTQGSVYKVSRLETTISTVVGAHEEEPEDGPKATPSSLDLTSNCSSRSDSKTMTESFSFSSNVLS

With `O=C(c1cc(C(F)(F)F)cc(C(F)(F)F)c1)N1CCC(N2CCC(O)CC2)C(c2ccc(Cl)cc2)C1` (racemic) [Example 63, Rac-cis-(3,5-Bis-trifluoromethyl-phenyl)-[3′-(4-chloro-phenyl)-4-hydroxy-[1,4′]bipiperidinyl-1′-yl]-methanone], the Ki in data set [1] (setting [3]) was 2.14 nM. Also, the solubility in data set [2] (pH 4.3, aqueous buffer) turned out to be 1000 µg/mL (≈ 1870 µM); in data set [2] (pH 6.5, aqueous buffer) it was 780 µg/mL (≈ 1460 µM). On to `Cc1ccc(C2CN(C(=O)c3cc(C(F)(F)F)cc(C(F)(F)F)c3)CCC2N2CCN(CC3CC3)CC2)cc1` (single isomer, unassigned; (-)) [Example 102, (−)-4-(3,5-Bis-trifluoromethyl-phenyl)-[4-(4-cyclopropylmethyl-piperazin-1-yl)-3-p-tolyl-piperidin-1-yl]-methanone], for which, in data set [1] (setting [3]), the “pKi (affinity to the NK-1 receptor)” value amounted to 9.28. For the setting “pH 4.3”, the “Solubility at pH 4.3” value was found to be 5.5 mg/mL. The “Solubility at pH 6.5” value (pH 6.5) came to 0.43 mg/mL. `CN1CCN([C@H]2CCN(C(=O)c3cc(C(F)(F)F)cc(C(F)(F)F)c3)C[C@H]2c2ccc(F)cc2)CC1` (racemic) [Example 45, Rac-cis-(3,5-Bis-trifluoromethyl-phenyl)-[3-(4-fluoro-phenyl)-4-(4-methyl-piperazin-1-yl)-piperidin-1-yl]-methanone]: the solubility in data set [2] (pH 4.3, aqueous buffer) is 2400 µg/mL (≈ 4640 µM); in data set [2] (pH 6.5, aqueous buffer), 1000 µg/mL (≈ 1930 µM). Turning to `Cc1ccc(C2CN(C(=O)c3cc(C(F)(F)F)cc(C(F)(F)F)c3)CCC2N2CCN(C3CC3)CC2)cc1` (single isomer, unassigned; (-)) [Example 110, (−)-(3,5-Bis-trifluoromethyl-phenyl)-[4-(4-cyclopropyl-piperazin-1-yl)-3-p-tolyl-piperidin-1-yl]-methanone], the Ki in data set [1] (setting [3]) is 1.05 nM.

Consider `CN1CCN([C@H]2CCN(C(=O)c3cc(C(F)(F)F)cc(C(F)(F)F)c3)C[C@H]2c2ccccc2)CC1` (racemic) [Example 27, Rac-cis-(3,5-Bis-trifluoromethyl-phenyl)-[4-(4-methyl-piperazin-1-yl)-3-phenyl-piperidin-1-yl]-methanone], for which, in data set [1] (setting [3]), the Ki is 3.09 nM. Besides, the solubility is over 8400 µg/mL in data set [2] (pH 4.3, aqueous buffer) and 910 µg/mL (≈ 1820 µM) in data set [2] (pH 6.5, aqueous buffer). With `O=C(c1cc(C(F)(F)F)cc(C(F)(F)F)c1)N1CC[C@H](N2CCN(CC3CC3)CC2)[C@H](c2ccccc2)C1` (racemic) [Example 36, Rac-cis-(3,5-Bis-trifluoromethyl-phenyl)-[4-(4-cyclopropylmethyl-piperazin-1-yl)-3-phenyl-piperidin-1-yl]-methanone], the Ki in data set [1] (setting [3]) was 1.26 nM. The compound also gave a solubility in data set [2] (pH 4.3, aqueous buffer) of over 7500 µg/mL. As for `CN1CCN([C@@H]2CCN(C(=O)c3cc(C(F)(F)F)cc(C(F)(F)F)c3)C[C@@H]2c2ccccc2)CC1` (single isomer, unassigned) [Example 92, (−)-(3,5-Bis-trifluoromethyl-phenyl)-[3-phenyl-4-(4-methyl-piperazin-1-yl)-piperidin-1-yl]-methanone], the “relative activity of enantiomer in the test for NK-1 binding” value in data set [1] is on record as “more active enantiomer”. Moreover, the Ki in data set [1] (setting [3]) is 2.69 nM. As to `O=C(c1cc(C(F)(F)F)cc(C(F)(F)F)c1)N1CC[C@H](N2CCNCC2)[C@H](c2ccc(F)cc2)C1` (racemic) [Example 82, Rac-cis-(3,5-Bis-trifluoromethyl-phenyl)-[3-(4-fluoro-phenyl)-4-piperazin-1-yl-piperidin-1-yl]-methanone], in data set [1] (setting [3]), the Ki was 2.09 nM.

Take `O=C(c1cc(C(F)(F)F)cc(C(F)(F)F)c1)N1CC[C@H](N2CCNCC2)[C@H](c2ccccc2)C1` (racemic) [Example 34, Rac-cis-(3,5-Bis-trifluoromethyl-phenyl)-(3-phenyl-4-piperazin-1-yl-piperidin-1-yl)-methanone]: in data set [2] (pH 4.3, aqueous buffer), the solubility was over 3500 µg/mL. As to `CC(C)(C)OC(=O)N1CCN(C2CCN(C(=O)c3cc(C(F)(F)F)cc(C(F)(F)F)c3)CC2c2ccccc2)CC1` (single isomer, unassigned; (-)) [Example 101, (−)-4-[1-(3,5-Bis-trifluoromethyl-benzoyl)-3-phenyl-piperidin-4-yl]-piperazine-1-carboxylic Acid Tert-Butyl Ester], in data set [1], the “relative activity of enantiomer in the test for NK-1 binding” value is “more active enantiomer”. Take `CN(C)C1CCN(C2CCN(C(=O)c3cc(C(F)(F)F)cc(C(F)(F)F)c3)CC2c2ccc(Cl)cc2)CC1` (racemic) [Example 107, Rac-cis-(3,5-bis-trifluoromethyl-phenyl)-[3′-(4-chloro-phenyl)-4-dimethylamino-[1,4′]bipiperidinyl-1′-yl]-methanone]: in data set [1] (setting [3]), the Ki was 0.631 nM.
